Reference: US7868006B2, “Heterocyclic substituted piperazines with CXCR3 antagonist activity” (Schering Corporation, priority 2005, dated 2011)
Like-named read-outs stand apart in the source and are kept apart here.

Molecular target: T1, human CXCR3 (N-delta 4) (Homo sapiens, UniProt P49682)
T1 construct: CD8 leader (N); Flag tag (N); expressed in transfected cells; host or cells: mouse pro-B Ba/F3 cells, stably transfected with pME18Sneo-hCXCR3 (N-delta 4); membrane preparation
T1 sequence (P49682 5-368 limits assumed): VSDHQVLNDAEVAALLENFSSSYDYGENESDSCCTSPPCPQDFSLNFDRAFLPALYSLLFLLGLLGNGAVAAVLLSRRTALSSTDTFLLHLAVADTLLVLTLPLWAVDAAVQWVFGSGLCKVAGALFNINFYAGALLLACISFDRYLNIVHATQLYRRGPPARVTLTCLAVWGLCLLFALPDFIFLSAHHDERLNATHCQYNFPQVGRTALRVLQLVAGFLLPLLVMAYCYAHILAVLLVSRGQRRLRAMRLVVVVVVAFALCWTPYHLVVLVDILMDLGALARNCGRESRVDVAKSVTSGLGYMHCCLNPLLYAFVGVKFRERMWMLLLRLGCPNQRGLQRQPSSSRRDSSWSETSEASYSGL
Experiment: Human CXCR3 (N-delta 4) Scintillation Proximity Assay (SPA), [125I] IP-10 binding
Conditions: Ba/F3-hCXCR3 (N-delta 4) membranes, 25 pM [125I] IP-10
Description: The inventive compounds can readily be evaluated to determine activity at The CXCR3 receptors by known methods, such as, for example, Development of Human CXCR3 (N-delta 4) Binding Assay.
Cloning and Expression of Human CXCR3 (N-delta 4):
The DNA encoding human CXCR3 was cloned by PCR using human genomic DNA (Promega, Madison, Wis.) as a template. The PCR primers were designed based on the published sequence of human orphan receptor GPR9 (1) with incorporated restriction sites, a Kozak consensus sequence, CD8 leader and Flag tag. The PCR product was subcloned into the mammalian expression vector pME18Sneo, a derivative of the SR-alpha expression vector (designated as pME18Sneo-hCXCR3 (N-delta 4).
IL-3-dependent mouse pro-B cells Ba/F3 were transfected by electroporation in 0.4 ml Dulbecco's PBS containing 4×10^6 cells with 20 μg of pME18Sneo-hCXCR3 (N-delta 4) plasmid DNA. Cells were pulsed at 400 Volts, 100 OHMs, 960 μFd. The transfected cells were under selection with 1 mg/ml G418 (Life Technologies, Gaithersburg, Md.). G418-resistant Ba/F3 clones were screened for CXCR3 expression by specific binding of [^125I] IP-10 (NEN Life Science Products, Boston, Mass.).
Preparation of Ba/F3-hCXCR3 (N-delta 4) Membranes:
Ba/F3 cells expressing human CXCR3 (N-delta 4) were pelleted and resuspended in the lysis buffer containing 10 mM HEPES, pH 7.5 and Complete® protease inhibitors (1 tablet per 100 ml) (Boehringer Mannheim, Indianapolis, Ind.) at a cell density of 20×10^6 cells per ml. After 5 minutes incubation on ice, cells were transferred to 4639 cell disruption bomb (Parr Instrument, Moline, Ill.) and applied with 1,500 psi of nitrogen for 30 minutes on ice. Large cellular debris was removed by centrifugation at 1,000×g. Cell membrane in the supernatant was sedimented at 100,000×g. The membrane was resuspended in the lysis buffer supplemented with 10% sucrose and stored at −80° C. Total protein concentration of the membrane was determined by BCA method from Pierce (Rockford, Ill.).
Human CXCR3 (N-delta 4) Scintillation Proximity Assay (SPA):
For each assay point, 2 μg of membrane was preincubated for 1 hr with 300 μg wheat germ agglutinin (WGA) coated SPA beads (Amersham, Arlington Heights, Ill.) in the binding buffer (50 mM HEPES, 1 mM CaCl2, 5 mM MgCl2, 125 mM NaCl, 0.002% NaN3, 1.0% BSA) at room temperature. The beads were spun down, washed once, resuspended in the binding buffer and transferred to a 96-well Isoplate (Wallac, Gaithersburg, Md.). 25 pM of [^125I] IP-10 with tested compounds in a series of titration were added to start the reaction. After 3 hr reaction at room temperature, the amount of [^125I] IP-10 bound to the SPA beads was determined with a Wallac 1450 Microbeta counter.
The Ki values for the various example compounds of the present invention are given in the afore-mentioned Table 1. From these values, it would be apparent to the skilled artisan that the compounds of the invention have excellent utility CXCR3 antagonists.

SMILES	IC50 (read-out: IC50 value) [nM]	IC50 (IC50 rating, read-out: IC50) [nM]
CC[C@H]1CN(c2nc(N)c(-c3nnc(C)o3)nc2Cl)CCN1C1CCN(Cc2ccc(Cl)cc2/C(N)=N\O)CC1 [Compound 1]	0.2	< 25
CC[C@H]1CN(c2nc(N)c(-c3nnc(CO)o3)nc2Cl)CCN1C1CCN(Cc2ccc(Cl)cc2/C(N)=N\O)CC1 [Compound 2]		< 25
CC[C@H]1CN(c2nc(N)c(-c3nnc(N)o3)nc2Cl)CCN1C1CCN(Cc2ccc(Cl)cc2F)CC1 [Compound 3]		< 25
CC[C@H]1CN(c2nc(N)c(-c3nnc(C)o3)nc2Cl)CCN1C1CCN(Cc2ccc(Cl)cc2)CC1 [Compound 4]		< 25
CC[C@H]1CN(c2nc(N)c(-c3nnc(C)o3)nc2Cl)CCN1C1CCN([C@@H](CO)c2ccc(Cl)cc2)CC1 [Compound 5]		< 25
CC[C@H]1CN(c2nc(N)c(-c3nnc(CO)o3)nc2Cl)CCN1C1CCN([C@@H](CO)c2ccc(Cl)cc2)CC1 [Compound 6]		< 25
CC[C@H]1CN(c2nc(N)c(-c3nnc(C)o3)nc2Cl)CCN1C1CCN(Cc2ccc(Cl)c(OCCS(C)(=O)=O)c2)CC1 [Compound 7]		< 25
CC[C@H]1CN(c2nc(N)c(-c3nnc(C)o3)nc2Cl)CCN1C1CCN(Cc2ccc(Cl)cc2C(N)=O)CC1 [Compound 8]		< 25
CC[C@H]1CN(c2nc(N)c(-c3nnc(N)o3)nc2Cl)CCN1C1CCN(Cc2ccc(C#N)cc2)CC1 [Compound 9]		< 25
CCNc1nnc(-c2cnc(N3CCN(C4CCN(C(=O)c5ccc(Cl)nc5N)CC4)[C@@H](CC)C3)c(Cl)n2)o1 [Compound 10]		< 25
CC[C@H]1CN(c2nc(N)c(-c3nnc(NC(C)C)o3)nc2Cl)CCN1C1CCN(C(=O)c2ccc(Cl)nc2N)CC1 [Compound 11]		< 25
CCCNc1nnc(-c2nc(Cl)c(N3CCN(C4CCN(C(=O)c5ccc(Cl)nc5N)CC4)[C@@H](CC)C3)nc2N)o1 [Compound 12]		< 25
CCNc1nnc(-c2cnc(N3CCN(C4CCN(C(=O)c5ccc(Cl)nc5N)CC4)[C@@H](CC)C3)c(C)n2)s1 [Compound 13]		< 25
CCNc1nnc(-c2nc(Cl)c(N3CCN(C4CCN(C(=O)c5ccc(Cl)nc5N)CC4)[C@@H](CC)C3)nc2N)o1 [Compound 14]		< 25
CC[C@H]1CN(c2nc(N)c(-c3nnc(N)o3)nc2Cl)CCN1C1CCN(Cc2ccc(Cl)nc2)CC1 [Compound 15]		< 25
CCNc1nnc(-c2cnc(N3CCN(C4CCN(C(=O)c5ccc(Cl)nc5N)CC4)[C@@H](CC)C3)c(C)n2)o1 [Compound 16]		< 25
CC[C@H]1CN(c2nc(N)c(-c3nnc(N)o3)nc2Cl)CCN1C1CCN(C(=O)c2ccc(Cl)nc2N)CC1 [Compound 17]		< 25
CCNc1nnc(-c2cnc(N3CCN(C4CCN(C(=O)c5ccc(Cl)nc5N)CC4)[C@@H](CC)C3)c(Cl)n2)s1 [Compound 18]		< 25
CC[C@H]1CN(c2nc(N)c(-c3nnc(C)o3)nc2Cl)CCN1C1CCN(C(=O)c2cc(F)c(Cl)nc2N)CC1 [Compound 19]		< 25
CCNc1nnc(-c2nc(Cl)c(N3CCN(C4CCN(C(=O)c5ccc(Cl)cc5)CC4)[C@@H](CC)C3)nc2N)o1 [Compound 20]		< 25
CC[C@H]1CN(c2ncc(-c3nnc(C)o3)nc2C)CCN1C1CCN(C(=O)c2ccc(Cl)cc2N)CC1 [Compound 21]		< 25
CC[C@H]1CN(c2nc(N)c(-c3nnc(C)o3)nc2Cl)CCN1C1CCN(C(=O)c2ccc(Cl)nc2N)CC1 [Compound 23]		< 25
CC[C@H]1CN(c2nc(N)c(C3=NCCN3)nc2Cl)CCN1C1CCN(C(=O)c2ccc(Cl)nc2N)CC1 [Compound 24]		< 25
CC[C@H]1CN(c2nc(N)c(-c3nnc(CO)o3)nc2Cl)CCN1C1CCN(C(=O)c2ccc(Cl)nc2N)CC1 [Compound 25]		< 25

SMILES	IC50 (read-out: IC50 value) [nM]	IC50 (IC50 rating, read-out: IC50) [nM]
CC[C@H]1CN(c2nc(N)c(-c3nnc(NCC(=O)OC)o3)nc2Cl)CCN1C1CCN(C(=O)c2ccc(Cl)nc2N)CC1 [Compound 26]		< 25
CC[C@H]1CN(c2ncc(C3=NCCN3)nc2Cl)CCN1C1CCN(C(=O)c2ccc(Cl)nc2N)CC1 [Compound 27]		< 25
CC[C@H]1CN(c2nc(N)c(-c3nnc(C(C)(C)O)o3)nc2Cl)CCN1C1CCN(Cc2ccc(Cl)cc2)CC1 [Compound 28]		< 25
CC[C@H]1CN(c2nc(N)c(-c3nnc(N(C)C)o3)nc2Cl)CCN1C1CCN(Cc2ccc(Cl)cc2)CC1 [Compound 29]		< 25
CC[C@H]1CN(c2nc(N)c(-c3nnc(N)[nH]3)nc2Cl)CCN1C1CCN(C(=O)c2ccc(Cl)nc2N)CC1 [Compound 30]		< 25
CC[C@H]1CN(c2nc(N)c(-c3nnc(C)o3)nc2Cl)CCN1C1CCN(C(=O)c2cc(F)c(Cl)nc2Cl)CC1 [Compound 31]		< 25
CC[C@H]1CN(c2ncc(-c3nnc(C)o3)nc2Cl)CCN1C1CCN(C(=O)c2ccc(Cl)cc2)CC1 [Compound 32]		< 25
CC[C@H]1CN(c2ncc(-c3nnc(C)o3)nc2Cl)CCN1C1CCN(C(=O)c2cc(F)c(Cl)nc2Cl)CC1 [Compound 33]		< 25
CC[C@H]1CN(c2nc(N)c(-c3nnc(CN)o3)nc2Cl)CCN1C1CCN(C(=O)c2ccc(Cl)nc2N)CC1 [Compound 34]		< 25
CC[C@H]1CN(c2ncc(-c3nnc(C)o3)nc2C)CCN1C1CCN(C(=O)c2ccc(Cl)nc2N)CC1 [Compound 35]		< 25
CC[C@H]1CN(c2nc(N)c(-c3nnc(N)o3)nc2Cl)CCN1C1CCN(C(=O)c2ccc(Cl)cc2)CC1 [Compound 36]		< 25
CC[C@H]1CN(c2ncc(-c3nnc(C)[nH]3)nc2Cl)CCN1C1CCN(C(=O)c2ccc(Cl)nc2N)CC1 [Compound 37]		< 25
CC[C@H]1CN(c2ncc(-c3nc[nH]n3)nc2C)CCN1C1CCN(C(=O)c2ccc(Cl)nc2N)CC1 [Compound 38]		< 25
CC[C@H]1CN(c2nc(N)c(-c3nnc(C(N)=O)o3)nc2Cl)CCN1C1CCN(C(=O)c2ccc(Cl)nc2N)CC1 [Compound 40]		< 25
CC[C@H]1CN(c2nc(N)c(-c3nnc(NCCO)o3)nc2Cl)CCN1C1CCN(C(=O)c2ccc(Cl)nc2N)CC1 [Compound 41]		< 25
CCNC(=O)Nc1nnc(-c2nc(Cl)c(N3CCN(C4CCN(C(=O)c5ccc(Cl)nc5N)CC4)[C@@H](CC)C3)nc2N)o1 [Compound 42]		< 25
CC[C@H]1CN(c2nc(N)c(-c3nnc(C)o3)nc2Cl)CCN1C1CCN(C(=O)c2ccc(Cl)cc2)CC1 [Compound 43]		< 25
CC[C@H]1CN(c2ncc(-c3n[nH]c(N)n3)nc2C)CCN1C1CCN(C(=O)c2ccc(Cl)nc2N)CC1 [Compound 44]		< 25
CC[C@H]1CN(c2nc(N)c(-c3nnc(CO)o3)nc2Cl)CCN1C1CCN(Cc2ccc(Cl)cc2C#N)CC1 [Compound 45]		< 25
CC[C@H]1CN(c2nc(N)c(-c3nnc(CNC(=O)C(F)(F)F)o3)nc2Cl)CCN1C1CCN(C(=O)c2ccc(Cl)nc2N)CC1 [Compound 46]		< 25
CC[C@H]1CN(c2nc(N)c(-c3nnc(CO)o3)nc2Cl)CCN1C1CCN([C@@H](C(=O)OC)c2ccc(Cl)cc2)CC1 [Compound 47]		< 25
CC[C@H]1CN(c2nc(N)c(-c3nnc(C)o3)nc2Cl)CCN1C1CCN(Cc2ccc(Cl)cc2C#N)CC1 [Compound 48]		< 25
CC[C@H]1CN(c2ncc(-c3nc[nH]n3)nc2C)CCN1C1CCN(C(=O)c2ccc(Cl)cc2)CC1 [Compound 49]		< 25
